Several values for one entry are separate records, joined by “and”; a condition that tells them apart may be missing. Equal values may be shown once.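 96-well plates; 48 h exposure; 5 concentrations. Endpoints by linear interpolation between flanking doses. Not reached: highest tested concentration assigned. Here, GI50 denotes the concentration required for 50% inhibition of growth. TGI: concentration producing complete growth inhibition.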
Experiments:
Test in all cases: NCI tumour cell line growth inhibition, 48 h
A549 NSCLC = system: A549 NSCLC
HCT-15 colon = system: HCT-15 colon
HOP-92 NSCLC = system: HOP-92 NSCLC
NCI-H460 lung = system: NCI-H460 lung
RPMI-8226 leukemia = system: RPMI-8226 leukemia
SF-268 CNS = system: SF-268 CNS
SF-295 CNS = system: SF-295 CNS
SNB-19 CNS = system: SNB-19 CNS
T-47D breast = system: T-47D breast
U251 CNS = system: U251 CNS

## CCc1nc2ccc(N=Nc3c(O)ccc4ccccc34)cc2[nH]1
A549 NSCLC
  TGI: 55.8 µM
HCT-15 colon
  TGI: 33.4 µM
HOP-92 NSCLC
  TGI: 42.7 µM
NCI-H460 lung
  TGI: 36.8 µM
RPMI-8226 leukemia
  TGI: > 78 µM
SF-268 CNS
  TGI: 53.3 µM
SF-295 CNS
  TGI: 43.5 µM
SNB-19 CNS
  TGI: > 66 µM
T-47D breast
  TGI: 59.7 µM
U251 CNS
  TGI: 39.9 µM

## Nc1nc(/C=C\c2ccccc2)nc(N2CCN(c3ccccc3)CC2)n1
A549 NSCLC
  GI50: 31.5 µM
  TGI: > 100 µM
HCT-15 colon
  GI50: 16.3 µM
  TGI: 78 µM
HOP-92 NSCLC
  GI50: 21 µM
  TGI: 93.3 µM
NCI-H460 lung
  GI50: 24.5 µM
  TGI: > 100 µM
RPMI-8226 leukemia
  GI50: 25.9 µM
  TGI: > 100 µM
SF-268 CNS
  GI50: 42.2 µM
  TGI: > 100 µM
SF-295 CNS
  GI50: 30 µM
  TGI: > 100 µM
SNB-19 CNS
  GI50: 20.4 µM
  TGI: 60 µM
T-47D breast
  GI50: 11.6 µM
  TGI: 41.9 µM
U251 CNS
  GI50: 24.3 µM
  TGI: 69.2 µM

## Cc1cc(-c2cc(O)ccc2Cl)cc2nnc(Nc3ccc(OCCN4CCCC4)cc3)nc12
A549 NSCLC
  GI50: 1.36 µM
  TGI: 3.48 µM
HCT-15 colon
  GI50: 0.183 µM
  TGI: 0.36 µM
HOP-92 NSCLC
  GI50: 1.1 µM
  TGI: 2.59 µM
NCI-H460 lung
  GI50: 0.579 µM
  TGI: 1.12 µM
RPMI-8226 leukemia
  GI50: 0.207 µM
  TGI: 0.442 µM
SF-268 CNS
  GI50: 1.99 µM
  TGI: 3.91 µM
SF-295 CNS
  GI50: 1.7 µM
  TGI: 3.32 µM
SNB-19 CNS
  GI50: 0.659 µM
  TGI: 1.23 µM
T-47D breast
  GI50: 1.66 µM
  TGI: 3.95 µM
U251 CNS
  GI50: 0.194 µM
  TGI: 0.372 µM

## NS(=O)(=O)c1cc(C(=O)O)c(O)c2ccccc12
A549 NSCLC
  TGI: > 100 µM
HCT-15 colon
  TGI: > 100 µM
HOP-92 NSCLC
  TGI: > 100 µM
NCI-H460 lung
  TGI: > 100 µM
RPMI-8226 leukemia
  TGI: > 100 µM
SF-268 CNS
  TGI: > 100 µM
SF-295 CNS
  TGI: > 100 µM
SNB-19 CNS
  TGI: > 100 µM
T-47D breast
  TGI: > 100 µM
U251 CNS
  TGI: > 100 µM

## CC(=O)NNc1nc(C)c(C(/C=C/c2ccccc2O)=N/N=C(N)N)s1
A549 NSCLC
  TGI: > 100 µM
HCT-15 colon
  TGI: > 100 µM
HOP-92 NSCLC
  TGI: > 100 µM
NCI-H460 lung
  TGI: > 100 µM
RPMI-8226 leukemia
  TGI: > 100 µM
SF-268 CNS
  TGI: > 100 µM
SF-295 CNS
  TGI: > 100 µM
SNB-19 CNS
  TGI: > 100 µM
T-47D breast
  TGI: > 100 µM
U251 CNS
  TGI: > 100 µM

## O=c1c(Cl)c(Cl)cnn1CCCl
A549 NSCLC
  TGI: 35.3 µM
HCT-15 colon
  TGI: 6.79 µM
HOP-92 NSCLC
  TGI: 3.48 µM
NCI-H460 lung
  TGI: 23.1 µM
RPMI-8226 leukemia
  TGI: > 47.1 µM
SF-268 CNS
  TGI: 14.1 µM
SF-295 CNS
  TGI: 31.4 µM
SNB-19 CNS
  TGI: 16.4 µM
T-47D breast
  TGI: 14.6 µM
U251 CNS
  TGI: 12.3 µM

## C=CCC(N[C@H](CO)c1ccccc1)c1cn(Cc2ccccc2Cl)c(=O)n(Cc2ccccc2Cl)c1=O (stereo partly specified)
A549 NSCLC
  GI50: 15.3 µM
  TGI: > 100 µM
HCT-15 colon
  GI50: 9.27 µM
  TGI: 35.2 µM
HOP-92 NSCLC
  GI50: 3.92 µM
  TGI: 23.1 µM
NCI-H460 lung
  GI50: 18.3 µM
  TGI: > 100 µM
RPMI-8226 leukemia
  GI50: 3.73 µM
  TGI: 12.5 µM
SF-268 CNS
  GI50: 18.6 µM
  TGI: > 100 µM
SF-295 CNS
  GI50: 8.13 µM
  TGI: 48 µM
SNB-19 CNS
  GI50: 35.7 µM
  TGI: > 100 µM
T-47D breast
  GI50: > 100 µM
  TGI: > 100 µM
U251 CNS
  GI50: 11.2 µM
  TGI: 34 µM

## CC(C)COc1nc2c(c(=O)n(C)c(=O)n2C)n1C
A549 NSCLC
  GI50: > 100 µM
  TGI: > 100 µM
HCT-15 colon
  GI50: > 100 µM
  TGI: > 100 µM
HOP-92 NSCLC
  GI50: > 100 µM
  TGI: > 100 µM
NCI-H460 lung
  GI50: > 100 µM
  TGI: > 100 µM
RPMI-8226 leukemia
  GI50: > 100 µM
  TGI: > 100 µM
SF-268 CNS
  GI50: > 100 µM
  TGI: > 100 µM
SF-295 CNS
  GI50: > 100 µM
  TGI: > 100 µM
SNB-19 CNS
  GI50: > 100 µM
  TGI: > 100 µM
T-47D breast
  GI50: > 100 µM
  TGI: > 100 µM
U251 CNS
  GI50: > 100 µM
  TGI: > 100 µM

## O=C1/C(=C/c2ccc(Cl)cc2)CNC/C1=C\c1ccc(Cl)cc1
A549 NSCLC
  TGI: > 100 µM and 27.4 µM
HCT-15 colon
  TGI: 2.6 µM
HOP-92 NSCLC
  TGI: > 26.2 µM
RPMI-8226 leukemia
  TGI: 0.722 µM
SF-268 CNS
  TGI: 3.77 µM
SF-295 CNS
  GI50: 0.532 µM and 2.26 µM
  TGI: 4.59 µM and 5.8 µM
SNB-19 CNS
  TGI: 3.14 µM and 11 µM
T-47D breast
  TGI: 36.1 µM
U251 CNS
  GI50: 0.502 µM
  TGI: 3.67 µM and 1.78 µM

## COC(=O)c1oc2c(C(=O)/C=C/c3ccc(OC)cc3)c(OCCN(C)C)ccc2c1C
A549 NSCLC
  GI50: 5.08 µM
  TGI: 23 µM
HCT-15 colon
  GI50: 4.13 µM
  TGI: 16.8 µM
HOP-92 NSCLC
  GI50: 5.91 µM
  TGI: 19.8 µM
NCI-H460 lung
  GI50: 4.56 µM
  TGI: 17.5 µM
RPMI-8226 leukemia
  GI50: 3.83 µM
  TGI: 20.5 µM
SF-268 CNS
  GI50: 5.63 µM
  TGI: 20.5 µM
SF-295 CNS
  GI50: 14.2 µM
  TGI: 29.3 µM
SNB-19 CNS
  GI50: 10.9 µM
  TGI: 23.5 µM
T-47D breast
  GI50: 3.1 µM
  TGI: 16.8 µM
U251 CNS
  GI50: 5.72 µM
  TGI: 19.3 µM

## CCCCCC/C=C\CCCCCCCCCC1=C(CN2CCN(C)CC2)C(=O)C=C(OC)C1=O
A549 NSCLC
  TGI: 28.6 µM
HCT-15 colon
  TGI: 7.87 µM
HOP-92 NSCLC
  TGI: 6.26 µM
NCI-H460 lung
  TGI: 23.2 µM
RPMI-8226 leukemia
  TGI: 3.9 µM
SF-268 CNS
  TGI: 19.7 µM
SF-295 CNS
  TGI: 25.3 µM
SNB-19 CNS
  TGI: 24.1 µM
T-47D breast
  TGI: 4.81 µM
U251 CNS
  TGI: 15 µM

## Clc1ccccc1-c1nnc2c(Cc3ccccc3)nc3ccccc3n12
A549 NSCLC
  GI50: 8.78 µM
  TGI: > 100 µM
HCT-15 colon
  GI50: 1.56 µM
  TGI: > 100 µM
HOP-92 NSCLC
  GI50: 3.45 µM
  TGI: 41.8 µM
NCI-H460 lung
  GI50: 3.18 µM
  TGI: > 100 µM
RPMI-8226 leukemia
  GI50: 5.64 µM
  TGI: > 100 µM
SF-268 CNS
  GI50: 7.15 µM
  TGI: > 100 µM
SF-295 CNS
  GI50: 8.12 µM
  TGI: > 100 µM
SNB-19 CNS
  GI50: 36.3 µM
  TGI: > 100 µM
T-47D breast
  GI50: 5.77 µM
  TGI: > 100 µM
U251 CNS
  GI50: 4.21 µM
  TGI: > 100 µM

## CCN(CC)CCCC(C)N/C(=C1\C(=O)NC(=O)\C1=C(/NC(C)CCCN(CC)CC)c1cccc(OC)c1)c1cccc(OC)c1 (stereo unspecified)
A549 NSCLC
  GI50: 0.819 µM
  TGI: 1.8 µM
HCT-15 colon
  GI50: 0.764 µM
  TGI: 4.07 µM
HOP-92 NSCLC
  GI50: 0.642 µM
  TGI: 1.76 µM
NCI-H460 lung
  GI50: 0.58 µM
  TGI: 2.05 µM
RPMI-8226 leukemia
  GI50: 0.949 µM
  TGI: 2.29 µM
SF-268 CNS
  GI50: 1.03 µM
  TGI: 3.11 µM
SF-295 CNS
  GI50: 0.813 µM
  TGI: 1.78 µM
SNB-19 CNS
  GI50: 1.99 µM
  TGI: 9.01 µM
T-47D breast
  GI50: 1.3 µM
  TGI: 3.7 µM
U251 CNS
  GI50: 0.844 µM
  TGI: 1.89 µM

## Oc1c(Cl)cc(Cl)c2ccc(Cn3cc(-c4ccc(C(F)(F)F)cc4)nn3)nc12
A549 NSCLC
  GI50: 16.5 µM
  TGI: 38.6 µM
HCT-15 colon
  GI50: 1.42 µM
  TGI: 3.3 µM
HOP-92 NSCLC
  GI50: 1.9 µM
  TGI: 5.82 µM
NCI-H460 lung
  GI50: 18.9 µM
  TGI: 37.3 µM
RPMI-8226 leukemia
  GI50: 1.25 µM
  TGI: 6.33 µM
SF-268 CNS
  GI50: 4.64 µM
  TGI: 20.1 µM
SF-295 CNS
  GI50: 17.2 µM
  TGI: 32.1 µM
SNB-19 CNS
  GI50: 8.94 µM
  TGI: 22.8 µM
T-47D breast
  GI50: 1.88 µM
  TGI: 5.59 µM
U251 CNS
  GI50: 4.43 µM
  TGI: 17.2 µM

— PubChem BioAssay (NCI)
